Laboratory results published in patent US6743804B2, “Quinoline derivatives as NK3 antagonists” (SmithKline Beecham S p.A., priority 1996, dated 2004).
Counter-ions that a name gives are not always drawn.

Target: T1, guinea-pig NK3 receptors (Cavia porcellus, UniProt P30098)
T1 sequence (P30098 1-440): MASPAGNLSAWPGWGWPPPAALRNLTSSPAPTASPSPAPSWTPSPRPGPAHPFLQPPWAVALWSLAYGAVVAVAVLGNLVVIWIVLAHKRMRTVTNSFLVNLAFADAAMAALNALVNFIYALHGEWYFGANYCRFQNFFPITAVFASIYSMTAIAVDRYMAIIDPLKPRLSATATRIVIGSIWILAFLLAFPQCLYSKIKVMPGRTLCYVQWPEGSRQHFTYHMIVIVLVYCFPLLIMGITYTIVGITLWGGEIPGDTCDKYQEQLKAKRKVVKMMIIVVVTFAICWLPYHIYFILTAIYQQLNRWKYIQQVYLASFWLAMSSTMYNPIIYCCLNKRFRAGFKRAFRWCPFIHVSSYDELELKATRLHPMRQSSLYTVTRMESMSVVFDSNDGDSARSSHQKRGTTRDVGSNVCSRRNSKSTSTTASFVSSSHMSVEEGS
Assay: Radioligand binding to guinea-pig NK3 receptors (guinea-pig cortex membranes, displacement of [3H]-Senktide or [125I]-[Me-Phe7]-NKB)
Description: The activity of the compounds of the present invention, as NK3 ligands, is determined by their ability to inhibit the binding of the radiolabelled NK3 ligands, [^125I]-[Me-Phe^7]-NKB or [^3H]-Senktide, to guinea-pig and human NK3 receptors (Renzertti et al, 1991, Neuropeptide, 18, 104-114; Buell et al, 1992, FEBS, 299(1), 90-95; Chung et al, 1994, Biochem. Biophys. Res. Commun., 198(3), 967-972). The binding assays utilized allow the determination of the concentration of the individual compound required to reduce by 50% the [^125I]-[Me-Phe^7]-NKB and [^3H]-Senktide specific binding to NK3 receptor in equilibrium conditions (IC50). Binding assays provide for each compound tested a mean IC50 value of 2-5 separate experiments performed in duplicate or triplicate. […] The NK3-antagonist activity of the compounds of the present invention is determined by their ability to inhibit senktide-induced contraction of the guinea-pig ileum (Maggi et al, 1990, Br. J. Pharmacol., 101, 996-1000) and rabbit isolated iris sphincter muscle (Hall et al., 1991, Eur. J. Pharmacol., 199, 9-14) and human NK3 receptors-mediated Ca^++ mobilization (Mochizuki et al, 1994, J. Biol. Chem., 269, 9651-9658). Guinea-pig and rabbit in-vitro functional assays provide for each compound tested a mean KB value of 3-8 separate experiments, where KB is the concentration of the individual compound required to produce a 2-fold rightward shift in the concentration-response curve of senktide. Human receptor functional assay allows the determination of the concentration of the individual compound required to reduce by 50% (IC50 values) the Ca^++ mobilization induced by the agonist NKB.

Ki	SMILES
8.8 nM	CC[C@H](NC(=O)c1c(OC)c(-c2ccccc2)nc2ccccc12)c1ccccc1 [Example 47]
12 nM	CCc1c(-c2ccccc2)nc2ccccc2c1C(=O)N[C@@H](CC)c1ccccc1 [Example 48]
5.6 nM	CC[C@H](NC(=O)c1c(C)c(-c2ccccc2)nc2ccccc12)c1ccccc1 [Example 22]

Test system: not given
Assay: not given

melting point	SMILES
197 to 199 °C	COC(=O)C(NC(=O)c1cc(-c2ccccc2)nc2ccc(Cl)cc12)c1ccccc1 (centres unmarked) [Example 35]
137 to 139 °C	CC[C@H](NC(=O)c1c(Cl)c(-c2ccccc2)nc2ccccc12)c1ccccc1 [Example 70]
156 to 157 °C	CCc1c(-c2ccccc2)nc2ccccc2c1C(=O)NC(C(=O)OC)c1ccccc1 (centres unmarked) [Example 36]
174 to 176 °C	COC(=O)C(NC(=O)c1cc(-c2ccccc2)nc2ccc(F)cc12)c1ccccc1 (centres unmarked) [Example 75]
186 to 187 °C	COC(=O)C(NC(=O)c1cc(-c2ccc3c(c2)OCO3)nc2ccccc12)c1ccccc1 (centres unmarked) [Example 63]
202 to 204 °C	COC(=O)C(NC(=O)c1cc(-c2cc[nH]c2)nc2ccccc12)c1ccccc1 (centres unmarked) [Example 66]
226 to 227 °C	COC(=O)C(NC(=O)c1cc(-c2ccc(O)cc2)nc2ccccc12)c1ccccc1 (centres unmarked) [Example 62]
149 to 151 °C	CCCc1c(-c2ccccc2)nc2ccccc2c1C(=O)NC(CC)c1ccccc1 (centres unmarked) [Example 40]
164 to 165 °C	CCC(NC(=O)c1c(OC)c(-c2ccccc2)nc2ccccc12)c1ccccc1 (centres unmarked) [Example 18]
175 to 178 °C	COC(=O)C(NC(=O)c1cc(-c2ccccc2Cl)nc2ccccc12)c1ccccc1 (centres unmarked) [Example 78]
180 to 182 °C	COC(=O)C(NC(=O)c1cc(-c2ccccc2C)nc2ccccc12)c1ccccc1 (centres unmarked) [Example 59]
147 to 150 °C	CCCCc1c(-c2ccccc2)nc2ccccc2c1C(=O)NC(CC)c1ccccc1 (centres unmarked) [Example 19]
186 to 188 °C	COC(=O)C(NC(=O)c1c2c(nc3ccccc13)-c1ccccc1CCC2)c1ccccc1 (centres unmarked) [Example 20]
180 to 183 °C	COC(=O)C(NC(=O)c1cc(-c2ccccc2)nc2cc(Cl)ccc12)c1ccccc1 (centres unmarked) [Example 32]
204 to 205 °C	C[C@H](O)[C@H](NC(=O)c1cc(-c2ccccc2)nc2ccccc12)c1ccccc1 [Example 17, (R,S)-N-[α-(1-hydroxyethyl)benzyl]-2-phenylquinoline-4-carboxamide]
161 to 163 °C	COC(=O)C(NC(=O)c1cc(-c2cccc(Cl)c2)nc2ccccc12)c1ccccc1 (centres unmarked) [Example 77]
217 to 219 °C	COC(=O)C(NC(=O)c1c2c(nc3ccccc13)-c1ccccc1CC2)c1ccccc1 (centres unmarked) [Example 52]
155 to 156 °C	CCCCC(NC(=O)c1cc(-c2ccccc2)nc2ccccc12)c1ccccc1 (centres unmarked) [Example 56]
230 to 231 °C	CC[C@H](NC(=O)c1c(C)c(-c2ccc(Br)cc2)nc2ccc(Br)cc12)c1ccccc1 [Example 41]
139 to 141 °C	NC[C@H](NC(=O)c1cc(-c2ccccc2)nc2ccccc12)c1ccccc1 [Example 68]

melting point	SMILES
124 to 125 °C	COC(=O)C(NC(=O)c1cc(-c2ccccc2OC)nc2ccccc12)c1ccccc1 (centres unmarked) [Example 24]
173 to 174 °C	CC(C)(NC(=O)c1cc(-c2ccccc2)nc2ccccc12)c1ccccc1 [Example 64]
194 to 196 °C	O=C(NC(Cc1ccccc1)c1ccccc1)c1cc(-c2ccccc2)nc2ccccc12 (centres unmarked) [Example 45]
125 to 127 °C	COC(=O)[C@H](NC(=O)c1c(O)c(-c2ccccc2)nc2ccccc12)c1ccccc1 [Example 87]
146 to 147 °C	COC(=O)C(NC(=O)c1cc(-c2ccccc2F)nc2ccccc12)c1ccccc1 (centres unmarked) [Example 26]
149 to 150 °C	CCCC(NC(=O)c1cc(-c2ccccc2)nc2ccccc12)c1ccccc1 (centres unmarked) [Example 37]
178 to 180 °C	COC(=O)C(NC(=O)c1cc(-c2ccccc2)nc2c(O)cccc12)c1ccccc1 (centres unmarked) [Example 81]
144 to 145 °C	COCC(NC(=O)c1cc(-c2ccccc2)nc2ccccc12)c1ccccc1 (centres unmarked) [Example 34]
164 to 165 °C	O=C(NC1(c2ccccc2)CCCC1)c1cc(-c2ccccc2)nc2ccccc12 [Example 61]
209 to 211 °C	COC(=O)C(NC(=O)c1cc(-c2ccccc2)nc2ccc(OC)cc12)c1ccccc1 (centres unmarked) [Example 43]
160 to 162 °C	CCC(NC(=O)c1cc(-c2ccccc2)nc2ccccc12)c1ccc(C)cc1 (centres unmarked) [Example 65]
198 to 200 °C	CCC(NC(=O)c1c(-c2ccccc2)c(-c2ccccc2)nc2ccccc12)c1ccccc1 (centres unmarked) [Example 25]
169 to 171 °C	COC(=O)C(NC(=O)c1cc(-c2ccsc2)nc2ccccc12)c1ccccc1 (centres unmarked) [Example 51]
179 to 181 °C	COC(=O)C(NC(=O)c1cc(-c2ccccc2)nc2ccc(C)cc12)c1ccccc1 (centres unmarked) [Example 33]
132 to 134 °C	CC[C@H](NC(=O)c1c(OC)c(-c2ccccc2)nc2ccccc12)c1ccccc1 [Example 47]
118 to 120 °C	CCc1c(-c2ccccc2)nc2ccccc2c1C(=O)N[C@@H](CC)c1ccccc1 [Example 48]
182 to 183 °C	COC(=O)C(NC(=O)c1cc(-c2ccc(OC)cc2)nc2ccccc12)c1ccccc1 (centres unmarked) [Example 60]
120 to 122 °C	COC(=O)[C@H](NC(=O)c1cc(-c2ccccc2)nc2ccccc12)C1=CCC=CC1 [Example 16]
119 to 122 °C	CC[C@H](NC(=O)c1c(Br)c(-c2ccccc2)nc2ccccc12)c1ccccc1 [Example 71]
209 to 211 °C	COC(=O)C(NC(=O)c1cc(-c2nccs2)nc2ccccc12)c1ccccc1 (centres unmarked) [Example 54]

melting point	SMILES
164 to 165 °C	COC(=O)C(NC(=O)c1cc(-c2ccc(Cl)c(Cl)c2)nc2ccccc12)c1ccccc1 (centres unmarked) [Example 67]
177 to 178 °C	CCC(NC(=O)c1cc(-c2ccccc2)nc2ccccc12)c1ccc(Cl)cc1 (centres unmarked) [Example 49]
142 to 143 °C	COC(=O)C(NC(=O)c1cc(-c2ccc(Cl)cc2Cl)nc2ccccc12)c1ccccc1 (centres unmarked) [Example 82]
180 to 181 °C	O=C(NC(c1ccccc1)C(F)(F)F)c1cc(-c2ccccc2)nc2ccccc12 (centres unmarked) [Example 46]
181 to 182 °C	COC(=O)C(NC(=O)c1cc(-c2ccc[nH]2)nc2ccccc12)c1ccccc1 (centres unmarked) [Example 53]
240 to 241 °C	COC(=O)C(NC(=O)c1cc(-c2cc3ccccc3o2)nc2ccccc12)c1ccccc1 (centres unmarked) [Example 44]
158 to 159 °C	CCc1c(-c2ccccc2)nc2ccccc2c1C(=O)NC(CC)c1ccccc1 (centres unmarked) [Example 38]
172 to 174 °C	COC(=O)C(NC(=O)c1cc(-c2ccc(C)cc2)nc2ccccc12)c1ccccc1 (centres unmarked) [Example 57]
179 to 180 °C	CC[C@H](NC(=O)c1c(C)c(-c2ccccc2)nc2ccc(Br)cc12)c1ccccc1 [Example 42]
140 °C (dec.)	COC(=O)[C@H](NC(=O)c1cc(-c2ccccc2)nc2ccccc12)c1ccc(O)cc1 (as salt: HCl) [Example 83, (R)-N-[α-(methoxycarbonyl)-4-hydroxybenzyl]-2-phenylquinoline-4-carboxamide]
201 to 202 °C	CCC(NC(=O)c1c(N2C(=O)c3ccccc3C2=O)c(-c2ccccc2)nc2ccccc12)c1ccccc1 (centres unmarked) [Example 39]
193 to 194 °C	COC(=O)C(NC(=O)c1cc(-c2ccccc2)nc2c(OC(C)=O)cccc12)c1ccccc1 (centres unmarked) [Example 80]
165 to 166 °C	CC(C)C(NC(=O)c1cc(-c2ccccc2)nc2ccccc12)c1ccccc1 (centres unmarked) [Example 72]
180 to 181 °C	COC(=O)C(NC(=O)c1c(C)c(-c2ccccc2)nc2ccccc12)c1ccccc1 (centres unmarked) [Example 30]
193 to 194 °C	CCC(NC(=O)c1cc(-c2ccccc2)nc2ccccc12)c1ccc(Cl)c(Cl)c1 (centres unmarked) [Example 27]
182 to 184 °C	O=C(NC(c1ccccc1)c1ccccc1)c1cc(-c2ccccc2)nc2ccccc12 [Example 84]
117 to 119 °C	O=C(NC(CO)c1ccccc1)c1cc(-c2ccccc2)nc2ccccc12 (centres unmarked) [Example 28]
128 to 129 °C	COC(=O)C(c1ccccc1)N(C)C(=O)c1cc(-c2ccccc2)nc2ccccc12 (centres unmarked) [Example 50]
151 to 153 °C	COC(=O)C(NC(=O)c1cc(C2CCCCC2)nc2ccccc12)c1ccccc1 (centres unmarked) [Example 76]
